The source of these data is patent US7214713B2, “Antraquinone compositions as anticancer compositions and nutrition supplements and methods of making and using them” (priority 2000, dated 2007).

In this series the test system is ascitic form of Gardner lymphosarcoma (IP-LsG). Nature of the series: anti-cancer screening in mice with ascitic Gardner lymphosarcoma. The format is in vivo. To be noted: for weight coefficient (weight loss in comparison with the control group): one week after the start of the therapy. As to the method:
The red colorant isolated under the above-described conditions and having the above-mentioned characteristics was subjected to a screening study for anti-cancer properties.
The tested substance was administered to mice suffering from the ascitic form of Gardner lymphosarcoma (IP-LsG). 6-(2-(2-hydroxyethyl)aminoethyl)-5,11-dioxo-5,6-dihydro-11H-indeno[1,2-c]isoquinoline hydrochloride having the summary formula C20H18N2O3.HCl was used as a reference substance.
Female C3H mice weighing 26.1 to 27.3 g were used. The animals were kept in plastic containers and fed with the NOE diet made by RATIO, s.r.o., Breclav, Czech Republic, and with potable water ad libitum. The temperature in the room was maintained, the relative humidity was 60%, and the light regimen was not regulated.
The Gardner lymphosarcoma is maintained in the ascitic form in the C3H mice by inoculating ascitic cells removed a week after the previous inoculation by puncturing the abdominal cavity. The mice are administered with 0.2 ml of the ascites diluted with an isotonic solution of sodium chloride for injections intraperitoneally 10 to 20 times. The cell material for tests is obtained by puncturing the abdominal cavity on the seventh day following inoculation. For the therapeutic test, the inoculation with the ascites diluted with an isotonic solution of sodium chloride for injections was made by administering 10^7 cells in a volume of 0.2 ml i.p. to each animal.
The C3H mice were over 6 weeks old, weighing 26.1 to 27.3 g, in groups of 10 animals, the control was-common. Two dosage groups were used for each route of administration and for one substance tested.
The dosage levels: 200 and 100 mg/kg×5 p.o. and 100 and 50 mg/kg×5 s.c. in a volume 0.2 to 0.4 ml and 0.2 to 0.4 ml p.o. (reference substance), resp. for 20 g body weight. Frequency of administration: 1× daily beginning on the first day. The tested substance was administered in a continuous pattern on the 1st to 5th days in doses given in Table 1 and the reference substance was administered p.o. once on the 1st day.
After the administration was finished, the animals were left for monitoring the survival time. The dose dependence of the survival time was evaluated in comparison with the non-administered control. Time as a biological response was currently evaluated by means of the non-parametric test according to Hájek (Fabián V.: Základní statistické metody (“Basic Statistical Methods”), NCSAV, Prague 1963).
After the experiment was complete, time in case of point estimates was evaluated using the test of identity of two means (Student t-test) under the presumption of logarithmic-normal distribution of time values and under the presumption of various unknown variances (Roth Z., Josífko M., Malý V., Trcka V.: Statistické metody v experimentální medicíne (“Statistical Methods in Experimental Medicine”); p. 278, SZN, Prague 1962). Geometrical averages were calculated from the individual values of time to death. The differences In average values in which the value of the test criterion has exceeded the critical value for the significance level of 5% were designated as statistically significant.

Where [1] appears, read: 100 mg/kg p.o. once on the 1st day.
Setting [2] is: 200 mg/kg p.o. once on the 1st day.

Take `Cl.O=C1c2ccccc2-c2c1c1ccccc1c(=O)n2CCNCCO` [reference, 6-(2-(2-hydroxyethyl)aminoethyl)-5,11-dioxo-5,6-dihydro-11H-indeno[1,2-c]isoquinoline hydrochloride]: under setting [1], the “median of time to death” value is recorded as over 48.5 days, the “survival LTS (number of animals surviving on day 65)” value was 5/10 and the “weight coefficient (weight loss in comparison with the control group)” value was −6.67%. Also, under setting [2], the “median of time to death” value is recorded as over 65.0 days, the “survival LTS (number of animals surviving on day 65)” value is given as 10/10 and the “weight coefficient (weight loss in comparison with the control group)” value is reported as −14.63%.
